For one data set, the system named is A. fumigatus VKM F-37. The data set is described as follows: Broth two-fold microdilution MIC (CLSI). To be noted: A. fumigatus VKM F-37; RPMI 1640 pH 7.0, 35 °C, 48 h. It counts as cell-based, Aspergillus fumigatus. For orientation: Dilution methods test growth across graded concentrations, often in twofold steps.
The subject of data set [1] is Aspergillus niger ATCC 16404. Put plainly: Disc-diffusion antifungal assay. To be noted: 40 µg/disc; A. niger ATCC 16404. It counts as cell-based. (In general: A growth-free zone around the sample is the usual read-out of agar diffusion tests.)
Data set [2] deals with A. niger 1133 m. The data set is described as follows: Broth two-fold microdilution MIC (CLSI). It counts as cell-based, Aspergillus niger. The following applies: A. niger 1133 m clinical isolate; RPMI 1640 pH 7.0, 35 °C, 48 h.
The next data set concerns C. laurentii 325m. The data set is described as follows: Broth microdilution MIC and MFC (CLSI). The class given is cell-based, Cr. laurentii.
Another data set has as its system C. parapsilosis 571. The data set is described as follows: Broth microdilution MIC and MFC (CLSI). The class given is cell-based.
The subject of another data set is A. fumigatus 390 m. Put plainly: Disc-diffusion antifungal assay. The class given is cell-based, Aspergillus fumigatus. To be noted: 40 µg/disc, pathogenic clinical isolate.
The subject of data set [3] is A. niger 1133 m. Put plainly: Disc-diffusion antifungal assay. The following applies: 40 µg/disc, pathogenic clinical isolate. It counts as cell-based, Aspergillus niger.
Data set [4] relates to reference and clinical strains of Aspergillus. The data set is described as follows: Disc-diffusion antifungal assay, Aspergillus strains. To be noted: range over clinical isolates of Aspergillus (Figure S2). The class given is cell-based.
Data set [5] has as its system Cryptococcus neoformans 297. Put plainly: Broth microdilution MIC and MFC (CLSI). The class given is cell-based.
For the next data set, the system named is C. glabrata 1402. Put plainly: Broth microdilution MIC and MFC (CLSI). It counts as cell-based.
The test system of another data set is Candida albicans 1402. Put plainly: Broth microdilution MIC and MFC (CLSI). The class given is cell-based.
A further data set deals with human erythrocytes. Put plainly: Hemolytic activity. To be noted: for hemolytic activity (in words): concentrations of 0–20 μM. It counts as cell-based. Here is the method: Erythrocytes were isolated from the peripheral blood of healthy donors after incubation at 4 °C for 2–3 h. All the donors are males, 35–38 years old. All of them have approved to collect blood samples, and the authors have permissions filled. All the blood samples have been destroyed after the experiments finished. The red blood cell suspension (100 μL) was pelleted, washed twice with saline, then the pellet was resuspended in 500 μL saline or distilled water (positive control of hemolysis). The compounds were added (final concentration of 20 μM). The samples were incubated for 1 h at 37 °C and centrifuged at 2000 rpm for 1.5 min. The OD of supernatants was measured on a Multiscan spectrophotometer FC (Thermo Scientific, Waltham, MA, USA) at a wavelength of 540 nm. The percent hemolysis was calculated relative to the positive control, taken as 100%.
Erythrocytes were isolated from the human blood: On the day of the study, blood was taken from the donor’s cubital vein into a test tube with an anticoagulant. The blood was incubated at 4 °C for 2‒3 h. A suspension of erythrocytes (100 μL) was diluted with a physiological buffer (pH 7.2) to a total volume of 500 μL. Solutions of the test substances with an initial concentration of […] (DMSO) were diluted with a PBS buffer (1:10). The resulting solutions were introduced into Eppendorf tubes in the amounts required to create the studied concentration (5, 10, or 20 μM). A mixture of PBS with erythrocytes was added to a total volume of 200 μL. The control (C) was a mixture of erythrocytes with H2O (100% of hemolysis). The intact control solution (I) was a mixture of erythrocytes with the PBS and solvent (DMSO). The antibiotic gramicidin S (Gram S) was used as a control sample with active hemolysis. The mixture was incubated for 1 h at 37 °C. The measurement of the optical density of the supernatants was carried out on a BioTek ELx800 automatic microplate photometer (USA) at 570 nm. The optical density of the liquid above the sediment in the control sample with H2O was taken as 100%.

The test system of data set [6] is K-562 (leukemia cell line). Put plainly: MTT cytotoxicity assay. The class given is cell-based. To be noted: 72 h, three experiments, each in triplicate.
Method: Experiments for determining the cytotoxic activity of the compound in MTT assays were performed as previously described [24]. The following tumor cell lines were used for this study: HCT-116 (colon cancer cell line), B16 (mouse melanoma cell line), K-562 (leukemia cell line), MDA-MB-231 (breast cancer line), and MCF-7 (breast cancer cell). […] The cell lines were cultured in Dulbecco modified Eagle’s medium supplemented with 5% fetal calf serum, 2 mM Lglutamine, 100 U/mL penicillin, and 100 mg/mL streptomycin at 37 °C, 5% CO2 in a humidified atmosphere. Experiments were carried out on cells in the logarithmic phase of growth. The peptide was dissolved in DMSO as a 10 mM stock solution, followed by serial dilutions in water immediately before the experiment. Briefly, cells (5 × 10^3 in 190 mL of culture medium) were plated in a 96-well plate and treated with 0.1% DMSO (blank control) or with 10 mM of the peptide (0.10‒50 μM; each concentration in duplicate) for 72 h. After incubation with peptide, 20 mL of aqueous MTT solution (3-(4,5-dimethylthiazol-2-yl)-2,5-diphenyltetrazolium bromide, 5 mg/mL) were added into each well for 2‒3 h. Formazan was dissolved in DMSO, and the absorbance at 570 nm was measured. […] All the experiments were repeated three times, each time in triplicate.

As a reminder, the MIC is the least concentration at which growth counts as inhibited. The low end stands for a more susceptible organism, the high end for a less susceptible organism. Broadly, the IC50 is the concentration that inhibits the measured activity by half. Low values mean greater potency in that assay, high ones weaker potency in that assay. In the case of “Methyldecanoyl-MePro-AHMOD-Ala-Aib-Ile-Iva-βAla-Alaol-Glyol [EmiA, emericellipsin A, nonribosomal lipopeptaibol, major compound of E. alkalina VKPM F1428]”, the “Minimal Inhibitory Concentration (MIC)” value in the data set on A. fumigatus VKM F-37 is reported as 2 µg/mL; with A. niger 1133 m [2], 4 µg/mL. Moreover, the “Zone of Inhibition” value in data set [1] is 25 ± 0.21 mm; with A. fumigatus 390 m it was 20 ± 0.40 mm; in the data set with A. niger 1133 m [3], 18 ± 0.27 mm. Further, the MIC in the data set with C. laurentii 325m (C. laurentii 325m clinical isolate, RPMI 1640 pH 7.0, 35 °C, 24 h) was 0.5 µg/mL; against C. parapsilosis 571 (C. parapsilosis 571 clinical isolate, RPMI 1640 pH 7.0, 35 °C, 24 h) it was 1 µg/mL; in [5] (Cryptococcus neoformans 297 clinical isolate, RPMI 1640 pH 7.0, 35 °C, 24 h), 0.5 µg/mL; against C. glabrata 1402 (C. glabrata 1402 clinical isolate, RPMI 1640 pH 7.0, 35 °C, 24 h), 0.25 µg/mL; in the data set with Candida albicans 1402 (Candida albicans 1402 clinical isolate, RPMI 1640 pH 7.0, 35 °C, 24 h), 2 µg/mL. The MFC amounted to 0.5 µg/mL in the data set with C. laurentii 325m (C. laurentii 325m, lowest concentration causing 95% death); 1 µg/mL in the data set with C. parapsilosis 571 (C. parapsilosis 571, lowest concentration causing 95% death); 0.5 µg/mL in [5] (Cryptococcus neoformans 297, lowest concentration causing 95% death); 0.5 µg/mL with C. glabrata 1402 (C. glabrata 1402, lowest concentration causing 95% death); 4 µg/mL against Candida albicans 1402 (Candida albicans 1402, lowest concentration causing 95% death, plated on PDA agar). In addition, in data set [4], the inhibition zones was 15–19 mm. Besides, in the data set with human erythrocytes (20 μM, 1 h, 37 °C, relative to H2O control = 100%, OD 540 nm or 570 nm, triplicate, mean), the hemolysis entry is “approximately 12.6%”. For the same substance, the “hemolytic activity (in words)” value is listed as “no hemolytic activity” in the data set on human erythrocytes and “negligible hemolytic activity” in the data set with human erythrocytes (listed as Emericellipsin A). Besides, it took 1000 ± 140 nM to reach half-maximal inhibition in data set [6] (IC50).

Source of the values: publication PMC7924852, “The Emericellipsins A–E from an Alkalophilic Fungus Emericellopsis alkalina Show Potent Activity against Multidrug-Resistant Pathogenic Fungi” (Journal of Fungi, 2021).
